Data as given in US8802669B2, “Dihydropyrimidine compounds and preparation methods, pharmaceutical compositions and uses thereof” (Institute of Pharmacology and Toxicology Academy of …, priority 2009, dated 2014).

Tests used:
HBV DNA = assay: Antiviral activity: inhibition of HBV DNA in supernatant of HepG2.2.15 cells (dot blot hybridization); type: cell-based, hepatitis B virus; details: for IC50: Hepatitis B virus, HepG2.2.15 cells, 8 days (2 x 4 days) incubation, read-out: IC50 (Inhibitory effect on HBV DNA); for SI: selectivity index, TC50 against IC50, HepG2.2.15 cells
Procedure: The antiviral activity of the compounds according to the present invention was tested following the methods described by Sells et al. (M. A. Sells, M. L. Chen, g. Acs, Proc. Natl. Acad. Sci., 1987, 84, 1005-1009) and Korba et al., (B. E. Korba, J. L. Gerin, Antiviral Research, 1992, 19. 55-70).
(§1) The antiviral tests were carried out in 96-well microtitre plates. Only growth medium and HepG2.2.15 cells were added to the first vertical row of the plate, which row severed as a blank control.
(§2) Stock solutions of the test compounds (50 mM) were initially dissolved in DMSO, and further dilutions were prepared in the growth medium of HepG2.2.15. The compounds according to the present invention, usually in a test concentration of 100 μg/ml (1st test concentration), were in each case pipetted into the second vertical test row of the microtitre plate and subsequently diluted by a factor of 2 each time, up to 2^10-fold, using growth medium plus 2% of foetal calf serum (volume 25 μl).
(§3) 225 μl of a HepG2.2.15 cell suspension (5×10^4 cells/ml) in growth medium plus 2% foetal calf serum were then added to each well of the microtitre plate.
(§4) The test batch was incubated at 37° C., 5% CO2 for 4 days. The supernatant was subsequently siphoned off and discarded, and 225 μl of freshly prepared growth medium were added to the wells. Once more, the compounds according to the present invention were added, in a volume 25 μl. The batches were incubated fro another 4 days.
The supernatants were subsequently harvested and, by means of reduced pressure, siphoned onto 96-well dot blot chambers covered with a nylon membrane (in accordance with the specification provided by the manufacturer).
After transfer of the supernatants onto the nylon membrane of the blot apparatus (see above), the supernatants of the HepG2.2.15 cells were denatured (1.5 M NaCl/0.5 N NaOH), neutralized (3 M […]/0.5 M Tris HCl, pH 7.5) and washed (2×SSC). By incubation of the filters at 120° C. for 2-4 hours, the DNA was subsequently baked onto the membrane.
The viral DNA of the treated HEpG2.2.15 cells on the nylon filter membrane was usually detected using non-radioactive digoxygenin-labelled hepatitis B-specific DNA probes which were in each case in accordance with the specifications of the manufacturer labelled with digoxygenin, purified and used for hybridization.
Briefly speaking, the prehybridization and hybridization were carried out in 5×SSC, 1×blocking reagent, 0.1% N-lauroylsacosine, 0.02% SDS and 100 μg of DNA from herring sperm. The prehybridization was carried out at 60° C. for 30 minutes and the specific hybridization was carried out using 20 to 40 ng/ml of the digoxygenated denatured HBV-specific DNA (14 hours, 60° C.). The fillers were subsequently washed, and then determination of HBV DNA by digoxygenin antibodies was carried out.
The digoxygenin-labelled DNA was detected immunologically in accordance with the specifications of the manufacturer.
Briefly speaking, the fillers were washed and prehybridized in a blocking agent (in accordance with the specifications of the manufacturer). They were subsequently hybridized for 30 minutes using an anti-DIG antibody linked to alkaline phosphatase. After a washing step, the substrate of alkaline phosphatase, CSPD, was added, incubated with the filters for 5 minutes, subsequently wrapped in plastic film and incubated at 37° C. for a further 15 minutes. The chemiluminescene of the Hepatitis B-specific DNA signals was visualized by exposition of the filters on an X-ray film (incubation, depending on the signal strength: 10 minutes to 2 hours). The half-maximum inhibitory concentration (IC50) was determined.
The half-maximum inhibitory concentration (IC50) means the concentration at which the hepatitis B-specific band was reduced by 50% in comparison with an untreated sample by the compound according to the present invention.

[1] = Cytotoxicity in HepG2.2.15 cells (cell morphology, Reed & Muench); type: cell-based; details: human, pathological changes observed by microscope after 8 days, read-out: TC50
Procedure: as §1, §2, §3, §4
Before the supernatants were harvested for determining the antiviral effect, the HePG2.2.15 cells were examined under the light microscope or by biochemical detection methods (for example Alamar Blue staining or Trypan Blue staining) for cytotoxic changes.
Substances-induced cytotoxic or cytostatic changes in the HepG2.2.15 cells were determined as changes in the cell morphology, for example under a light microscope. Such substance-induced changes of the HepG2.2.15 cells in comparison with untreated cells was apparent, for example, as cell lysis, vacuolization changed cell morphology. The pathological changes were observed by microscope after 8 days as index, a complete destroy being indicated as 4, 75% as 3, 50% as 2, 25% as 1, and no pathological change as 0. The average pathological change degree and inhibited percentages at various concentration were calculated, and a half-maximum toxic concentration (TC50) and a maximum non-toxic concentration […] were determined according to Reed & Muench methods.
TC50 means the concentration at which 50% of the cells have a morphology which is […] to the corresponding cell control by the compounds according to the present invention.

[2] = Solubility of the hydrochloride solid in solvents; type: physicochemical
Procedure: 0.18 g of the target compound obtained in Example 5 was dissolved in 2 ml of anhydrous ethanol, a solution of hydrogen chloride in ethyl-ether was added dropwise to precipitate a solid, and filtered to give 0.19 g of an off-white powdered solid.

With CCOC(=O)C1=C(CN2CCN(CC)CC2)NC(c2c(F)cc(F)cc2F)=NC1c1ccc(F)cc1Cl (stereo not drawn) [Example 8, ethyl 2-(2,4,6-trifluorophenyl)-4-(2-chloro-4-fluorophenyl)-6-(4-ethylpiperazin-1-ylmethyl)-1,4-dihydropyrimidine-5-carboxylate] the IC50 (HBV DNA) was 6.7 µM, the SI (HBV DNA) was 6.16 and the CC50 at 8 days [1] was 41 µM.
With CCOC(=O)C1=C(CN2CCOCC2)N=C(c2c(F)cc(F)cc2N2CCOCC2)NC1c1ccc(F)cc1Cl (stereo not drawn) [Example 13, ethyl 2-[2,4-difluoro-6-(morpholin-1-yl)phenyl]-4-(2-chlor-4-fluorophenyl)-6-(morpholine-1-ylmethyl)-1,4-dihydropyrimidine-5-carboxylate] the IC50 (HBV DNA) was 4.4 µM, the SI (HBV DNA) was 12.72 and the CC50 at 8 days [1] was 55 µM.
For CCOC(=O)C1=C(CN(CCO)CCO)NC(c2c(F)cc(F)cc2F)=NC1c1ccc(F)cc1Cl (stereo not drawn) [Example 15, ethyl 2-(2,4,6-trifluorophenyl)-4-(2-chloro-4-fluorophenyl)-6-diethanolaminomethyl-1,4-dihydropyrimidine-5-carboxylate], the IC50 (HBV DNA) was 6.7 µM, the SI (HBV DNA) was 8.11 and the CC50 at 8 days [1] was 54 µM.
For CCOC(=O)C1=C(CN2CCOCC2)NC(c2c(F)cc(F)cc2F)=NC1c1ccc(F)cc1Cl.Cl (stereo not drawn) [Example 18, ethyl 2-(2,4,6-trifluorophenyl)-4-(2-chloro-4-fluorophenyl)-6-(morpholin-1-ylmethyl)-1,4-dihydropyrimidine-5-carboxylate hydrochloride], the “solubility in dichloromethane, ethyl acetate, acetone, and the like” value ([2]; dichloromethane, ethyl acetate, acetone) was “insoluble”, the “solubility in methanol and ethanol” value ([2]; methanol and ethanol) was “soluble slightly” and the solubility in water ([2]; water) was “greatly soluble”. It also gave an IC50 (HBV DNA) of 2.4 µM, an SI (HBV DNA) of 13.37 and a CC50 at 8 days [1] of 31 µM.
